Tested on: USP25 phosphorylation at SQ/TQ motif in HEK293T cells
Experiment: USP25 phosphorylation (p-SQ/TQ) after IR, IP and immunoblot
Assay type: cell-based
Details: IR (10 Gy), Ku55933 (25 µM) for 2 h pretreatment or phosphatase treatment of immunoprecipitated USP25
Method: Figure 4 Regulation of the DDR signaling by USP25. a) HEK293T cells were left untreated or treated with IR (10 Gy) or 5‐Fu (20 uM). USP25 was immunoprecipitated and immunoblotted with phospho‐SQ/TQ (p‐SQ/TQ). b) HEK293T cells were pretreated with Ku55933 (25 µM) for 2 h followed by treatment with IR(10 Gy). After 1 h, USP25 was immunoprecipitated, left untreated, or treated with phosphatase and immunoblotted with p‐SQ/TQ. c) HEK293T cells transfected with USP25^WT and indicated constructs were left treated with IR(10 Gy). USP25 was immunoprecipitated and immunoblotted with p‐SQ/TQ. d) USP25 knockdowm U2OS cells rescued with USP25WT or USP25T523A were treated with IR (2 Gy), and co‐localization USP25 with γH2AX was detected by immunofluorescence. n>80 in each group. e) HEK293T cells were left untreated or treated with 5‐Fu (20 uM). […] The interaction USP25 and MDC1 deletions was detected. g) HEK293T cells transfected with USP25^WT or USP25^T523A were treated with IR, and cell lysates were incubated with GST or GST‐MDC1‐BRCT in vitro. The interaction USP25 and MDC1‐BRCT was detected. h) Non‐phosphorylated or phosphorylated Thr523 peptide was conjugated to beads and incubated with purified GST‐MDC1‐BRCT domain in buffer. […]

O=c1cc(-c2cccc3c2Sc2ccccc2S3)oc(N2CCOCC2)c1 [Ku55933]
USP25 phosphorylation: abolished
